Data as given in PMC3433414, “Oral Administration of the Pimelic Diphenylamide HDAC Inhibitor HDACi 4b Is Unsuitable for Chronic Inhibition of HDAC Activity in the CNS In Vivo” (PLoS ONE, 2012).

Assays:
[1] = dissolved upon heating; room temperature; cited from earlier work
[2] = test system: histone acetylation in mouse brain; experiment: Histone acetylation in brain tissue (central pharmacodynamics); conditions: 200 mg/kg sc; positive control
Method: Cortical tissue from the mice was assessed using specific antibodies for increases in acetylation of specific lysine residues on Histones H3 (H3K4, H3K9, H3K14) and H4 (H4K5) as well as global acetylation of H3 (Ac-H3) and H4 (Ac-H4). The acetylation level was normalized to total H3 and H4 expression level. The samples from the rest of the brain were analyzed for terminal 4b levels at the time of sacrifice. […] Mouse brains were harvested, dissected, immediately frozen in liquid nitrogen and stored at −80°C. Mouse brain tissue was homogenized (polytron homogenizer, 20 s) in 2 volumes of histone extraction buffer (1×PBS, 5% Triton X-100 (v/v), 3 mM DTT, 1 mM orthovanadate, 5 mM NaF, 1 mM PMSF, 5 mM Na Butyrate, Roche complete protease inhibitor tablet) and centrifuged at 900 g for 8 min at 4°C. The resulting pellet was washed twice in 1 ml of histone extraction buffer before being re-suspended in 2–3 volumes of 0.2 M HCl. Samples were then vortexed briefly and left to shake vigorously for 3 h at 4°C using a VXR Vibrax 1.5 ml polypropylene tube shaker (IKA). After shaking, samples were centrifuged at 900 g for 8 min at 4°C and the resulting supernatant was retained and neutralized with 0.2 volumes of 1 M NaOH.

R6/2 mice = conditions: cited from earlier work

O=C(CCCCCCC(=O)Nc1ccccc1)NO [SAHA]
stability in cyclodextrins [1]: stable for seven days | histone acetylation in cortical tissue [2]: robust enhancement of acetylation of H3K9, H4K5, and total acetylated levels of H3 and H4 | motor dysfunction (rotarod performance, grip strength) (R6/2 mice; drinking water): significant improvement in motor dysfunction | maximum tolerated dose (R6/2 mice; in drinking water): 0.67 g/L
